Results taken from ChEMBL document CHEMBL1201862, “PubChem BioAssay data set” (2004).
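Test compounds were applied to cells in 96-well plates for 48 hours at 5 doses. GI50 marks 50% less growth.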 Active and inactive are the calls of the source. Rule as the data show it: active = GI50 up to about 1.1 µM and inactive = higher.

Key:
Experiment in all cases: DTP human tumour cell line panel, 48 h
[1] = system: 786-0
[2] = system: A549
[3] = system: COLO 205
[4] = system: KM-20L2
[5] = system: NCI-H460
[6] = system: OVCAR-3
[7] = system: OVCAR-4
[8] = system: OVCAR-5
[9] = system: OVCAR-8
[10] = system: SK-OV-3
[11] = system: UACC-257
[12] = system: UACC-62
[13] = system: HL-60
[14] = system: M19-MEL
[15] = system: SR

Measured: GI50

CCCCCN(CCCCC)C(=O)[C@@H](CCC(=O)OCc1ccccc1)NC(=O)c1cc2ccccc2[nH]1
inactive: [1] > 100 µM | [2] > 100 µM | [3] 6.18 µM | [4] > 100 µM | [5] > 100 µM | [6] > 100 µM | [7] > 100 µM | [8] > 100 µM | [9] 6.15 µM | [10] > 100 µM | [11] 39.3 µM | [12] 6.78 µM

CCOC(=O)CC1=N/C(=N/C(=N)N[N+](=O)[O-])SC1
inactive: [1] > 100 µM | [2] > 100 µM | [3] > 100 µM | [13] > 100 µM | [4] > 100 µM | [14] > 100 µM | [5] > 100 µM | [6] > 100 µM | [7] > 100 µM | [8] > 100 µM | [9] > 100 µM | [10] > 100 µM | [11] > 100 µM | [12] > 100 µM

CC1SC2=NC3=C(c4ccccc4C3=O)C(c3ccc(Br)cc3)N2C1=O (stereo not given)
inactive: [1] 64.4 µM | [2] 57.7 µM | [3] 90.2 µM | [13] 22.4 µM | [4] > 100 µM | [14] 56.9 µM | [5] > 100 µM | [6] 37.2 µM | [7] 41.4 µM | [8] > 100 µM | [9] 47.3 µM | [10] > 100 µM | [11] > 100 µM | [12] 30.6 µM

CC1(Br)CC2OC3(Br)C=CC(C)(O)C2(CC1=O)C3(C)C (stereo not given)
inactive: [1] > 100 µM | [2] > 100 µM | [3] > 100 µM | [4] > 100 µM | [5] > 100 µM | [6] > 100 µM | [7] > 100 µM | [8] > 100 µM | [9] > 100 µM | [10] > 100 µM | [15] 82.4 µM | [11] > 100 µM | [12] 99.1 µM

O=C1C2C(C(=O)N1O)N(Cc1ccccc1)C(=O)N2Cc1ccccc1 (stereo not given)
inactive: [1] > 100 µM | [2] > 100 µM | [3] > 100 µM | [13] > 100 µM | [4] > 100 µM | [14] > 100 µM | [5] > 100 µM | [6] > 100 µM | [7] > 100 µM | [8] > 100 µM | [9] > 100 µM | [10] > 100 µM | [15] > 100 µM | [11] > 100 µM | [12] > 100 µM

O=C1O[C@@H](c2ccccc2)C[C@H]1CN1CCOCC1
inactive: [1] 28.2 µM | [2] > 100 µM | [3] 97.5 µM | [13] 24.6 µM | [4] > 100 µM | [5] > 100 µM | [6] > 100 µM | [7] > 100 µM | [8] > 100 µM | [9] > 100 µM | [10] 68.1 µM | [11] > 100 µM | [12] > 100 µM

OC12CCCCCC1(N1CCOCC1)c1ccccc12 (stereo not given)
inactive: [1] > 100 µM | [2] > 100 µM | [3] > 100 µM | [13] > 100 µM | [4] > 100 µM | [14] > 100 µM | [5] > 100 µM | [6] > 100 µM | [7] > 100 µM | [8] > 100 µM | [9] > 100 µM | [10] > 100 µM | [11] > 100 µM | [12] > 100 µM

C#CC1(O)c2ccccc2C(=O)c2ccccc21
inactive: [1] > 100 µM | [2] > 100 µM | [3] > 100 µM | [13] > 100 µM | [4] > 100 µM | [14] > 100 µM | [5] > 100 µM | [7] > 100 µM | [8] > 100 µM | [9] > 100 µM | [15] > 100 µM | [11] > 100 µM

CC(C)C(=O)Nc1nc2c(ncn2C2OC(CO)C(O)C2O)c(=O)[nH]1 (stereo not given)
inactive: [1] > 100 µM | [2] > 100 µM | [3] > 100 µM | [13] > 100 µM | [4] > 100 µM | [14] > 100 µM | [5] > 100 µM | [6] > 100 µM | [7] > 100 µM | [8] > 100 µM | [9] > 100 µM | [10] > 100 µM | [15] > 100 µM | [11] > 100 µM | [12] > 100 µM

C/C(CC(=O)Nc1cccc(Cl)c1C)=N\NC(=O)c1ccncc1
inactive: [1] > 100 µM | [2] > 100 µM | [3] > 100 µM | [13] > 100 µM | [4] > 100 µM | [14] > 100 µM | [5] > 100 µM | [6] > 100 µM | [8] > 100 µM | [9] > 100 µM | [10] > 100 µM | [11] > 100 µM | [12] > 100 µM

NC(=O)N1N=C2c3ccccc3OC[C@H]2[C@@H]1c1ccccc1
inactive: [1] 5.02 µM | [2] 5.4 µM | [3] 18.2 µM | [13] 22.6 µM | [4] 23.4 µM | [14] 49.7 µM | [5] 13.2 µM | [6] 20.9 µM | [7] 33.7 µM | [8] 20.1 µM | [9] 5.07 µM | [10] 8.95 µM | [15] 6.31 µM | [11] 10.9 µM | [12] 3.78 µM

OC1/C(=C/c2ccccc2)CNC/C1=C\c1ccccc1 (stereo not given)
inactive: [1] > 100 µM | [2] > 100 µM | [3] > 100 µM | [13] 92.7 µM | [4] > 100 µM | [14] > 100 µM | [5] > 100 µM | [6] > 100 µM | [7] > 100 µM | [8] > 100 µM | [9] > 100 µM | [10] > 100 µM | [15] > 100 µM | [11] > 100 µM | [12] > 100 µM

CSc1nc(-c2ccccc2)c2c(n1)-c1ccccc1CC2
inactive: [1] > 100 µM | [2] > 100 µM | [3] > 100 µM | [13] > 100 µM | [4] 78.5 µM | [14] > 100 µM | [5] > 100 µM | [6] > 100 µM | [7] > 100 µM | [8] > 100 µM | [9] > 100 µM | [10] > 100 µM | [15] > 100 µM | [11] > 100 µM | [12] > 100 µM

CN(C)c1ccc2nc3c(ccc4ccccc43)[o+]c2c1
inactive: [1] 15.5 µM | [2] 18.7 µM | [3] 16.3 µM | [13] 1.95 µM | [4] 13.8 µM | [14] 3.03 µM | [5] 16.2 µM | [6] 3.89 µM | [7] 12.8 µM | [8] 21.9 µM | [9] 12.4 µM | [10] 15.7 µM | [15] 3.42 µM | [11] 4.67 µM | [12] 11.5 µM

O=[N+]([O-])c1nccn1CC(O)c1ccc(F)cc1 (stereo not given)
inactive: [1] > 100 µM | [2] > 100 µM | [3] > 100 µM | [13] > 100 µM | [4] > 100 µM | [14] > 100 µM | [5] > 100 µM | [6] > 100 µM | [7] > 100 µM | [8] > 100 µM | [9] > 100 µM | [10] > 100 µM | [11] > 100 µM | [12] > 100 µM

O=C(Sc1sc(=S)sc1SC(=O)c1ccccc1)c1ccccc1
inactive: [1] > 100 µM | [2] 27.6 µM | [3] > 100 µM | [13] > 100 µM | [4] 48.2 µM | [14] 21.7 µM | [5] > 10 µM | [6] > 100 µM | [7] > 100 µM | [8] 33.1 µM | [9] 83.4 µM | [10] 22.9 µM | [11] > 100 µM | [12] 21.9 µM

C#CCC(N)(CO)C(=O)O (stereo not given)
inactive: [1] > 100 µM | [2] > 100 µM | [3] > 100 µM | [13] > 100 µM | [14] > 100 µM | [5] > 100 µM | [6] > 100 µM | [7] > 100 µM | [8] > 100 µM | [9] > 100 µM | [10] > 100 µM | [15] > 100 µM | [11] > 100 µM | [12] > 100 µM

COCC(OC)C(CC=C(C#N)C#N)OC (stereo not given)
inactive: [1] > 100 µM | [2] > 100 µM | [3] > 100 µM | [13] > 100 µM | [4] > 100 µM | [14] > 100 µM | [6] > 100 µM | [7] > 100 µM | [8] > 100 µM | [9] > 100 µM | [10] > 100 µM | [15] > 100 µM | [11] > 100 µM | [12] > 100 µM

Cn1c(=O)nc2n(-c3cccc(Br)c3)c3ccccc3nc-2c1=O
inactive: [1] 3.71 µM | [2] 2.92 µM | [3] 1.68 µM | [13] 2.54 µM | [4] 2.43 µM | [14] 1.43 µM | [5] 2.96 µM | [6] 2.38 µM | [7] 3.71 µM | [8] 13.3 µM | [9] 3.56 µM | [10] 21.3 µM | [11] 2.09 µM | [12] 1.63 µM
